Experimental data: PubChem BioAssay (NCI)
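Exposure lasted 48 hours, with cells grown in 96-well plates and compounds tested at five concentrations. Here, GI50 denotes the concentration required for 50% inhibition of growth. Definition used: TGI = concentration required for complete inhibition of growth.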

Columns and labels:
Experiment in all cases: growth of human tumour cells (NCI), 48 h
A498 renal = system: A498 renal
A549 NSCLC = system: A549 NSCLC
ACHN renal = system: ACHN renal
CAKI-1 renal = system: CAKI-1 renal
CCRF-CEM leukemia = system: CCRF-CEM leukemia
COLO 205 colon = system: COLO 205 colon
DU-145 prostate = system: DU-145 prostate
EKVX NSCLC = system: EKVX NSCLC
HCC-2998 colon = system: HCC-2998 colon
HCT-15 colon = system: HCT-15 colon
HL-60(TB) leukemia = system: HL-60(TB) leukemia
HOP-62 NSCLC = system: HOP-62 NSCLC
HOP-92 NSCLC = system: HOP-92 NSCLC
HS 578T breast = system: HS 578T breast
IGROV1 ovarian = system: IGROV1 ovarian
K-562 leukemia = system: K-562 leukemia
KM12 colon = system: KM12 colon
LOX IMVI melanoma = system: LOX IMVI melanoma
MALME-3M melanoma = system: MALME-3M melanoma
MCF7 breast = system: MCF7 breast
MDA-MB-231 breast = system: MDA-MB-231 breast
MDA-MB-435 = system: MDA-MB-435
MOLT-4 leukemia = system: MOLT-4 leukemia
NCI-H226 lung = system: NCI-H226 lung
NCI-H23 lung = system: NCI-H23 lung

O=C(Cc1csc2nc(-c3ccc(Cl)cc3)cn12)N/N=C/c1ccccc1O
GI50 (A498 renal): 8.32 µM | TGI (A498 renal): > 100 µM | GI50 (A549 NSCLC): 5.18 µM | TGI (A549 NSCLC): > 100 µM | GI50 (ACHN renal): 1.77 µM | TGI (ACHN renal): > 100 µM | GI50 (CAKI-1 renal): 0.782 µM | TGI (CAKI-1 renal): 16 µM | GI50 (CCRF-CEM leukemia): 0.736 µM | TGI (CCRF-CEM leukemia): > 100 µM | GI50 (COLO 205 colon): 2.93 µM | TGI (COLO 205 colon): > 100 µM | GI50 (DU-145 prostate): 2.72 µM | TGI (DU-145 prostate): > 100 µM | GI50 (EKVX NSCLC): 3.26 µM | TGI (EKVX NSCLC): > 100 µM | GI50 (HCC-2998 colon): 2.4 µM | TGI (HCC-2998 colon): > 100 µM | GI50 (HCT-15 colon): 0.468 µM | TGI (HCT-15 colon): > 100 µM | GI50 (HL-60(TB) leukemia): 1.66 µM | TGI (HL-60(TB) leukemia): 8.51 µM | GI50 (HOP-62 NSCLC): 4.67 µM | TGI (HOP-62 NSCLC): > 100 µM | GI50 (HOP-92 NSCLC): 3.39 µM | TGI (HOP-92 NSCLC): 32.4 µM | GI50 (HS 578T breast): 10 µM | TGI (HS 578T breast): > 100 µM | GI50 (IGROV1 ovarian): 3.05 µM | TGI (IGROV1 ovarian): > 100 µM | GI50 (K-562 leukemia): 3.42 µM | TGI (K-562 leukemia): > 100 µM | GI50 (KM12 colon): 2.81 µM | TGI (KM12 colon): > 100 µM | GI50 (LOX IMVI melanoma): 1.93 µM | TGI (LOX IMVI melanoma): 36.1 µM | GI50 (MALME-3M melanoma): 5.56 µM | TGI (MALME-3M melanoma): 94.2 µM | GI50 (MCF7 breast): 3.34 µM | TGI (MCF7 breast): > 100 µM | GI50 (MDA-MB-231 breast): 13.1 µM | TGI (MDA-MB-231 breast): > 100 µM | GI50 (MDA-MB-435): 6.1 µM | TGI (MDA-MB-435): > 100 µM | GI50 (MOLT-4 leukemia): 2.17 µM | TGI (MOLT-4 leukemia): > 100 µM | GI50 (NCI-H226 lung): 4.65 µM | TGI (NCI-H226 lung): > 100 µM | GI50 (NCI-H23 lung): 5.32 µM | TGI (NCI-H23 lung): > 100 µM
